Data from patent publication US12059453B2, “Blood plasma fractions for use in muscle regeneration” (Alkahest, Inc., priority 2019, dated 2024).

Test system: C2C12 cells
Assay: IGF-1 versus PPF1 dose-response on glucose utilization, C2C12 cells in 2% horse serum
Type: cell-based
Details: treatment day 5, read day 6
Procedure: FIG. 16A and FIG. 16B report the effects of insulin-like growth factor-1 (IGF-1) on glucose utilization in C2C12 cells treated in 2% horse serum. Cells were plated in DMEM plus 4.5 g/L of glucose and 10% fetal bovine serum (FBS) at Day −2 (d−2). At Day 0 (d0) media was refreshed with DMEM plus 1 g/L glucose and 2% horse serum. At Day 5 (d5) various treatments were added with glucose utilization determined at Day 6 (d6). […] Recombinant human IGF1 was purchased from R&D Systems (Cat. 291-G1). […] IGF-1 is known to have an impact on metabolism of myotubes, and its presence in PPF1 has been calculated as approximately 14.88 ng/mL. […] Thus, other factors must necessarily be involved in the effects of PPF1.

With “recombinant human IGF-1: Recombinant human IGF1 purchased from R&D Systems (Cat. 291-G1)” the “EC50, glucose utilization” value was 0.01743 µg/mL.
